Results from PubChem BioAssay AID2423 (Broad Institute, 2010).
Inconclusive results are not listed. Active and inactive are the calls of the source. How the calls were made is not given here.

Test system: C. albicans CaCi-8 + fluconazole, Alamar Blue growth, 48 h
Assay: resistant C. albicans growth inhibition with fluconazole, dose response, CaCi-8 strain, Alamar Blue fluorescence (AID 2423)

Compound | EC50
Oc1c(CN2CCN(c3ccccc3)CC2)cc(Br)c2cccnc12 | 1.23 µM
CCOC(=O)CSc1ccc(C(=O)N2CCN(C)CC2)cc1[N+](=O)[O-] | > 16 µM (inactive)
O=[N+]([O-])c1cccc(C=Nc2cccc3ccccc23)c1O | 12.2 µM
Cc1ccc(NC(=O)NC2CCCCCCC2)c(C)c1 | > 16 µM (inactive)
OC(COc1ccc2c(c1)OCO2)CN1CCCC1 (stereo not drawn) | > 15 µM (inactive)
O=C(/C=C/c1ccc(F)cc1)N1CCN(c2ccccn2)CC1 | 0.8 µM
CN(C)c1ccc(/C=C/C=C/c2sc3ccccc3[n+]2C)cc1 | 1.74 µM
CC1(O)CC(c2ccc(Cl)cc2)=NN1C(=O)c1ccc([N+](=O)[O-])cc1 (stereo not drawn) | 3.21 µM
COc1cccc(C(=O)Oc2c(CN3CCOCC3)cc(Cl)c3cccnc23)c1 | 1.95 µM
CN(C)c1ccc(/C=C/c2ccc3ccccc3[n+]2C)cc1 | 0.37 µM
Nc1nsc2ccccc12 | > 15 µM (inactive)
Cc1ccc(S(=O)(=O)CC(C)N2CCOCC2)c(S(=O)(=O)CC(C)N2CCOCC2)c1 (stereo not drawn) | > 16 µM (inactive)
COC(=O)[C@@H]1CCCN1Cc1nc(Cc2ccccc2F)no1 | > 16 µM (inactive)
Oc1c(C(c2ccccc2Cl)N2CCCC2)ccc2cccnc12 (stereo not drawn) | 1.25 µM
COc1cccc(/C=N/NC(=O)c2nc(-c3ccccc3)cc(-c3ccccc3)n2)c1O | 1.76 µM
O=c1c2cc(Br)ccc2nc(-c2cccc(C(F)(F)F)c2)n1O | 1.04 µM
CC(C)(C)c1ccc(CSc2cnn(C(C)(C)C)c(=O)c2Cl)cc1 | 0.324 µM
CCN(c1ccccc1)S(=O)(=O)c1ccc(C(=O)Nc2nnc(C3CC3)o2)cc1 | 2.22 µM
O=C(Nc1ccccc1N1CCOCC1)c1ccc(S(=O)(=O)NCc2ccco2)cc1 | > 15 µM (inactive)
O=[N+]([O-])c1ccc(O)c(Nc2ncnc3ccc(Br)cc23)c1 | 0.15 µM
Cc1ccc(-n2c(O)c(C=Nc3ccccc3-c3n[nH]c(=S)[nH]c3=O)c3ccccc3c2=O)cc1C | 0.496 µM
COc1cc(NC(=O)c2ccccc2NS(=O)(=O)c2ccc(Cl)s2)cc(OC)c1 | > 16 µM (inactive)
Cc1ccc(NCc2ccc(O)c3ncccc23)cc1 | 16 µM
Oc1c(C(Nc2cccc(C(F)(F)F)c2)c2ccncc2)ccc2cccnc12 (stereo not drawn) | 2.44 µM
CC[n+]1c(C=C2C=C(C)OC(C)=C2)sc2ccccc21 | 2.08 µM
Nc1ccc(C(=O)N/N=C\c2ccc(OC(=O)c3ccccc3Cl)cc2)cc1 | 0.431 µM

Compound | EC50
O=Cc1ccc(O)c2ncccc12 | 1.45 µM
CCOC(=O)CNC(=O)c1sc2ncnc(N3CCc4ccccc4C3)c2c1C | 4.56 µM
Cc1cc(C(=O)N/N=C/c2cc(Cl)cc([N+](=O)[O-])c2O)c2ccccc2n1 | 2.79 µM
Cc1ccc(NC(=S)c2nc3ccccc3[nH]2)cc1 | > 16 µM (inactive)
O=C(/C=C/c1cccs1)NC(=S)NNC(=O)c1ccccc1O | 8.54 µM
O=C(NCc1ccco1)c1ccccc1NS(=O)(=O)c1ccc(Br)s1 | > 16 µM (inactive)
CN(CCCNC(=O)CCCOc1cc(=O)n(C)c2ccccc12)Cc1ccccc1 | > 16 µM (inactive)
CCOc1ccccc1NC(=O)c1cc(S(=O)(=O)N2CCC3(CC2)OCCO3)ccc1F | > 16 µM (inactive)
CCC(=O)NC(c1ccccc1OC)c1ccc2cccnc2c1O (stereo not drawn) | 0.999 µM
Cc1cccc(Cc2nnc(CCC(=O)N3CCCCC3c3nccs3)o2)c1 (stereo not drawn) | > 16 µM (inactive)
Cc1ccc(NC(=O)C2C(C(=O)O)C3C=CC2C32CC2)cc1 (stereo not drawn) | > 16 µM (inactive)
CC(C)(C)c1nnc(NC(=O)CCS(=O)(=O)c2ccccc2)s1 | 0.943 µM
O=C(N/N=C/c1cc(Br)cc(Cl)c1O)c1ccc2c(c1)OCO2 | 2.75 µM
Cc1ccc(-c2nc3c(Cl)cc(Cl)cc3c(=O)n2O)cc1 | 1.11 µM
C=CCc1cccc(/C=N/NC(=O)CNc2ccccc2OC)c1O | 12.5 µM
CC(=O)c1cc(C#N)c(N2CCCC2)nc1C | > 16 µM (inactive)
COc1ccc(-c2cc(N)n(S(=O)(=O)c3c(F)c(F)c(F)c(F)c3F)n2)cc1OC | > 16 µM (inactive)
OCc1ccnc2c(O)cccc12 | > 16 µM (inactive)
Cc1ccc(C(=O)c2oc3nc(C)cc(C)c3c2N)cc1 | 5.28 µM
Clc1ccccc1-c1nc2ccccc2c2nc3ccccc3n12 | 0.204 µM
Cc1ccc(NC(=O)c2sc3nc(N)c(C#N)cc3c2N)cc1 | 0.625 µM
C[C@H]([C@@H](N)C(=O)N[C@@H](C(=O)O)[C@@H]1O[C@H](n2ccc(=O)[nH]c2=O)[C@@H](O)[C@H]1O)[C@@H](O)c1ccc(O)cn1 | 3.16 µM
O=C(OCn1ncc(Cl)c(Cl)c1=O)c1cccc(C(F)(F)F)c1 | 2.46 µM
C=CCc1cccc(/C=N/NC(=O)CNc2cccc3ccccc23)c1O | 3.11 µM
S=c1[nH]nc(-c2cccs2)n1/N=C/c1cccs1 | 1.07 µM
C/C(=N\NC(=O)C1CCCC1)c1ccc(Cl)c(Cl)c1 | > 15 µM (inactive)

Compound | EC50
Oc1ccc(N=Nc2ccc3c(c2)OCCO3)c2ncccc12 | 0.709 µM
O=Nc1c(O)n(Cc2cccc(Cl)c2)c2ccccc12 | 1.2 µM
O=C(Cn1c2ccc(F)cc2c2nc3n(c(=O)c21)CCS3)N1CCCC1 | > 16 µM (inactive)
COc1ccccc1N=Nc1ccc(O)c2ncccc12 | 0.871 µM
O=c1c2ccccc2nc(/C=C/c2ccc([N+](=O)[O-])o2)n1-c1ccc(O)cc1 | < 0.12 µM
O=c1c2ccccc2nc(N/N=C/c2c(O)ccc3ccccc23)n1O | 0.238 µM
N/C(Cc1ccc(Cl)cc1Cl)=N\OC(=O)c1ccccc1 | 0.833 µM
Fc1cccc2sc(Nc3nnc(-c4ccco4)o3)nc12 | > 15 µM (inactive)
C/C(CC(=O)Nc1cc(C)ccn1)=N\NC(=O)c1cccc(C)c1O | > 16 µM (inactive)
COC(=O)Cn1nc(-c2ccccc2)c2ccccc21 | 2.28 µM
COc1ccc(-c2csc(N(CC3CCCO3)C(=O)c3ccco3)n2)cc1 (stereo not drawn) | > 16 µM (inactive)
CC[C@@H]1C=CC=CC[C@H](C)[C@@H](O)[C@@H](C)C(=O)[C@H](C)[C@@H](O)[C@H](C)C(=O)[C@H](C)[C@@H](O)[C@H](C)C=CC(=O)O[C@H]2[C@@H](C)[C@@H](CC1)O[C@@]1(CC[C@@H](C)[C@@H](C[C@H](C)O)O1)[C@@H]2C | 0.654 µM
Cc1ccc2[nH]c(=O)c(C3C(C#N)=C(N)Oc4c3ccc3cccnc43)cc2c1 (stereo not drawn) | 0.971 µM
O=C1NC(=O)/C(=C\c2ccc(Br)o2)S1 | 1.72 µM
CC(=O)c1c(C)[nH]c(C(=O)Nc2ccc(C)c(C)c2)c1C | 3.45 µM
O=[N+]([O-])c1cc(Cl)c(O)c2ncccc12 | 0.344 µM
Cc1cccc(N2CCc3c2nc2ccc(Br)cc2c3N)c1 | 1.61 µM
O=C(CCN1CCN(c2ccccc2)CC1)N/N=C/c1ccc(O)c(O)c1O | 4.02 µM
COc1cccc(/C=N/NC(=O)C(=O)Nc2ccccc2OC(F)(F)C(F)F)c1O | 1.02 µM
O=C(N/N=C/c1ccc(O)cc1O)c1ccc(CN2C(=O)c3cccc4cccc2c34)cc1 | 0.709 µM
CC(C)(C)CC(=O)Nc1nnc(C(F)(F)F)s1 | > 16 µM (inactive)
COc1ccc(C(=O)NC(=S)NNC(=O)c2ccc3ccccc3n2)cc1 | 0.583 µM
Cc1cc(NC(c2ccc(Cl)cc2)c2ccc3cccnc3c2O)no1 (stereo not drawn) | 0.598 µM
CCCCCn1c(=O)c(C(=O)NCc2ccncc2)c(O)c2ccccc21 | 1.72 µM
O=[N+]([O-])c1cc(/C=N/Nc2nc3ccccc3[nH]2)c(O)cc1O | 6.22 µM
O=C(N/N=C/c1ccccc1O)c1cccc(C(F)(F)F)c1 | 1.84 µM
